Experiments:
[1] = biological target: EP4 (Homo sapiens (Human), UniProt P35408); assay: hEP4 cAMP assay (BT549 breast cancer cells, HTRF cAMP); assay type: cell-based; settings: antagonistic activity; mean values where measured multiple times
Description: Plate is pre-incubated 45 minutes at room temperature. Subsequently, 2.5 microliters of PGE2 (final conc. 6 nM) are transferred into the assay plate. Plate is incubated 30 minutes at room temperature.

[2] = biological target: EP2 (Homo sapiens (Human), UniProt P43116);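 further: antagonism of PGE2-stimulated cAMP accumulation in SF295 human glioblastoma cells with endogenous EP2, cAMP read by HTRF, expressed relative to DMSO control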
Chain of EP2 (P43116 whole entry): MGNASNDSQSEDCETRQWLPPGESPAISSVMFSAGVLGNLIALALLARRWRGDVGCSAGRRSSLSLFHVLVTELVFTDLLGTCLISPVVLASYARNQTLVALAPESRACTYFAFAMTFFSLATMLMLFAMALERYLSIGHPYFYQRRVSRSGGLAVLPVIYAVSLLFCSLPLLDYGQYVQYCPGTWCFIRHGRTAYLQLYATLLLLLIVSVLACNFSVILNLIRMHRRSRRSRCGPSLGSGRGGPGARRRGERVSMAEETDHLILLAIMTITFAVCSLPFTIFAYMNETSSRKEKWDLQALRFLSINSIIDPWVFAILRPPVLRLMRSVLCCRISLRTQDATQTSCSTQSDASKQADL

Chain of EP4 (P35408 whole entry): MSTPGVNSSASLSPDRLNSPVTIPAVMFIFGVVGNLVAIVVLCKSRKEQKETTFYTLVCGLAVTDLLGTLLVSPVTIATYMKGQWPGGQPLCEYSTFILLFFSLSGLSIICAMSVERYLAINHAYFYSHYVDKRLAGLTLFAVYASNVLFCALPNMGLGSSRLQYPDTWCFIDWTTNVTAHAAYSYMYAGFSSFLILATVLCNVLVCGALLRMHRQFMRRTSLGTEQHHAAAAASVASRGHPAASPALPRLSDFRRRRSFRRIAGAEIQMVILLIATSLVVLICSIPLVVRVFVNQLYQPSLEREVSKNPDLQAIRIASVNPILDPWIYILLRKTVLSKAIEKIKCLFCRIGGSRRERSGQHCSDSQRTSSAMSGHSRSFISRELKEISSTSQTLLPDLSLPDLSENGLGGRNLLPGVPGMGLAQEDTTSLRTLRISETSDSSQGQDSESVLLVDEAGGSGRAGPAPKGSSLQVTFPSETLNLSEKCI

Structure (SMILES)	IC50 [1]	IC50 [2]
COc1ccc(F)c2c1cc(C)n2CCNc1cc(-c2ccc(-c3csc(CC(N)=O)n3)cc2)ncn1 [Example 786, 2-[4-(4-{6-[2-(7-Fluoro-4-methoxy-2-methyl-indol-1-yl)-ethylamino]-pyrimidin-4-yl}-phenyl)-thiazol-2-yl]-acetamide]	319 nM	16 nM
Cc1cc2c(F)c(F)cc(F)c2n1CCNc1cc(-c2ccc(C(=O)O)c(CC(C)C)c2)ncn1 [compound 506]	113 nM	12 nM
CCOc1cc(-c2cc(NCCn3c(Cl)cc4c(OC)ccc(F)c43)ncn2)sc1C(=O)O [Example 777, 5-{6-[2-(2-Chloro-7-fluoro-4-methoxy-indol-1-yl)-ethylamino]-pyrimidin-4-yl}-3-ethoxy-thiophene-2-carboxylic acid]	3 nM	2 nM
CCCOc1cc(-c2cc(NCCn3c(C)cc4c(C)cc(F)c(F)c43)ncn2)cc(Cl)c1C(=O)O [compound 628]	254 nM	89 nM
Cc1cc2c(Cl)cc(F)cc2n1CCNc1cc(-c2ccc(C(=O)O)c(CC(C)C)c2)ncn1 [compound 419]	403 nM	90 nM
CCCc1cc(-c2cc(NCCn3c(C)cc4c(OC)cc(Cl)cc43)ncn2)cc(Cl)c1C(=O)O [compound 518]	40 nM	11 nM
COc1cc(F)cc2c1cc(C)n2CCNc1cc(-c2ccc3[nH]ccc3c2)ncn1 [compound 699, [2-(6-Fluoro-4-methoxy-2-methyl-indol-1-yl)-ethyl]-[6-(1H-indol-5-yl)-pyrimidin-4-yl]-amine]	63 nM	9 nM
COc1c(F)ccc2c1cc(C)n2CCNc1cc(-c2ccc(C(=O)O)c(CC(C)C)c2)ncn1 [compound 538]	261 nM	64 nM
Cc1cc2ccccc2n1CCNc1cc(-c2ccc(-c3nccs3)cc2)ncn1 [Example 764, [2-(2-Methyl-indol-1-yl)-ethyl]-[6-(4-thiazol-2-yl-phenyl)-pyrimidin-4-yl]-amine]	815 nM	8 nM
CCOc1cc(-c2cc(NCCn3c(C)cc4c(Cl)ccc(F)c43)ncn2)cc(Cl)c1C(=O)O [compound 450]	117 nM	9 nM
COc1cc(-c2cc(NCCn3c(C)cc4c(OC)cccc43)ncn2)ccc1-c1nnn[nH]1 [compound 670, [2-(4-Methoxy-2-methyl-indol-1-yl)-ethyl]-{6-[3-methoxy-4-(1H-tetrazol-5-yl)-phenyl]-pyrimidin-4-yl}-amine]	406 nM	8 nM
CCCc1cc(-c2cc(NCCn3c(C)cc4cc(OC)cc(F)c43)ncn2)ccc1C(=O)O [compound 443]	487 nM	175 nM
CCOc1cc(-c2cc(NCCn3c(C)cc4c(F)c(F)cc(F)c43)ncn2)ccc1C(=O)O [compound 449]	242 nM	4 nM
CCOc1cc(-c2cc(NCCn3c(C)cc4c(OC)cccc43)ncn2)cc(F)c1C(=O)O [compound 407]	636 nM	15 nM
COc1ccc(F)c2c1cc(C)n2CCNc1cc(-c2ccc(C(=O)O)c(NCC(F)(F)F)c2)ncn1 [compound 588, 4-{6-[2-(7-Fluoro-4-methoxy-2-methyl-indol-1-yl)-ethylamino]-pyrimidin-4-yl}-2-(2,2,2-trifluoro-ethylamino)-benzoic acid]	92 nM	2 nM
Cc1ccc(F)c2c1cc(C)n2CCNc1cc(-c2ccc(-c3n[nH]cc3C(=O)O)cc2)ncn1 [compound 456]	944 nM	233 nM
COc1c(Cl)cc(F)c2c1cc(C)n2CCNc1cc(-c2ccc(C(=O)O)c(CC(C)C)c2)ncn1 [compound 622]	303 nM	732 nM
Cc1cc2c(F)ccc(C#N)c2n1CCNc1cc(-c2ccc(C(=O)O)c(CC(C)C)c2)ncn1 [compound 482]	986 nM	686 nM
COc1c(F)cc(Cl)c2c1cc(C)n2CCNc1cc(-c2ccc3[nH][nH]c(=O)c3c2)ncn1 [Example 783, 5-{6-[2-(7-Chloro-5-fluoro-4-methoxy-2-methyl-indol-1-yl)-ethylamino]-pyrimidin-4-yl}-1,2-dihydro-indazol-3-one]	912 nM	271 nM
CCOc1cc(-c2cc(NCCn3c(C)cc4c(OC)cccc43)ncn2)ccc1CNC1CC1 [compound 463]	741 nM	252 nM
CCCOc1cc(-c2cc(NCCn3c(C)cc4c(C)ccc(F)c43)ncn2)ccc1C(=O)O [compound 441]	113 nM	11 nM
COc1ccc(F)c2c1cc(C)n2CCNc1cc(-c2ccc(-c3n[nH]cc3C(=O)O)cc2)ncn1 [compound 593]	435 nM	157 nM

The remaining compounds from weak to strong by IC50 [1], led by results:

IC50 [1]	IC50 [2]	Structure (SMILES)
759 nM	17 nM	CCCc1cc(-c2cc(NCCn3c(C)cc4cc(F)cc(Cl)c43)ncn2)cc(Cl)c1C(=O)O [compound 426]
505 nM	37 nM	Cc1ccc(F)c2c1cc(C)n2CCNc1cc(-c2ccc(-n3cncn3)cc2)ncn1 [compound 741, [2-(7-Fluoro-2,4-dimethyl-indol-1-yl)-ethyl]-[6-(4-[1,2,4]triazol-1-yl-phenyl)-pyrimidin-4-yl]-amine]
325 nM	91 nM	CCOc1cc(-c2cc(NCCn3c(C)cc4c(OC)c(F)cc(Cl)c43)ncn2)ccc1C(=O)O [compound 486]
287 nM	24 nM	CCOc1cc(-c2cc(NCCn3c(C)cc4c(OC)cc(F)cc43)ncn2)cc(F)c1-c1nnn[nH]1 [compound 658]
266 nM	47 nM	COc1cc(-c2cc(NCCn3c(C)cc4c(OC)ccc(F)c43)ncn2)cc(C)c1C(=O)O [compound 406]
245 nM	3 nM	COc1cccc2c1cc(C)n2CCNc1cc(-c2ccc(C(=O)O)c(OCC(C)C)c2)ncn1 [compound 485]
235 nM	5 nM	CCCc1cc(-c2cc(NCCn3c(C)cc4c(OC)cccc43)ncn2)cc(F)c1C(=O)O [compound 445]
225 nM	165 nM	Cc1cc(F)c(F)c2c1cc(C)n2CCNc1cc(-c2ccc3c(ccn3C)c2)ncn1 [compound 702]
203 nM	31 nM	COc1cc(F)cc2c1cc(C)n2CCNc1cc(-c2ccc(-c3coc(C)n3)cc2)ncn1 [compound 585]
194 nM	85 nM	COc1ccc(-c2ccc(-c3cc(NCCn4c(C)cc5c(OC)cc(F)cc54)ncn3)cc2)nn1 [Example 756, [2-(6-Fluoro-4-methoxy-2-methyl-indol-1-yl)-ethyl]-{6-[4-(6-methoxy-pyridazin-3-yl)-phenyl]-pyrimidin-4-yl}-amine]
163 nM	18 nM	COc1ccc(C)c2c1cc(C)n2CCNc1cc(-c2ccc(C(=O)O)c(CC(C)C)c2)ncn1 [compound 507]
161 nM	40 nM	COc1cncc(-c2ccc(-c3cc(NCCn4c(C)cc5c(OC)cc(F)cc54)ncn3)cc2)n1 [Example 761, [2-(6-Fluoro-4-methoxy-2-methyl-indol-1-yl)-ethyl]-{6-[4-(6-methoxy-pyrazin-2-yl)-phenyl]-pyrimidin-4-yl}-amine]
150 nM	10 nM	COc1cccc2c1cc(C)n2CCNc1cc(-c2cc(Cl)c(C(=O)O)c(OCC(F)(F)F)c2)ncn1 [compound 720]
117 nM	21 nM	CCOc1cc(-c2cc(NCCn3c(C)cc4c(C)cc(F)cc43)ncn2)cc(Cl)c1C(=O)O [compound 432]

Source: US12011444B2, “N-substituted indole derivatives as PGE2 receptor modulators” (Idorsia Pharmaceuticals Ltd, priority 2015, dated 2024)
